According to patent publication US20220324835A1 (Nurix Therapeutics, Inc., priority 2018, published 2022):

What was measured:
T-cell [1] = assay: CD25 cell surface staining on T-cells stimulated with anti-CD3 antibody alone (Biological Example 2); type: cell-based, human; details: T-cell, fold change over baseline, primary human total T-cells, read-out: CD25 staining Anti-CD3 stimulation; for fold induction at 1 µM: 1 μM Cbl-b inhibitor; for fold induction at 8 µM: 8 μM Cbl-b inhibitor
T-cell [2] = assay: CD25 cell surface staining on T-cells co-stimulated with anti-CD3 and anti-CD28 antibody (Biological Example 2); type: cell-based, human; details: Homo sapiens, T-cell, fold change over baseline, primary human total T-cells, read-out: CD25 staining Anti-CD3/Anti-CD28 stimulation; for fold induction at 0.3 µM: 0.3 μM Cbl-b inhibitor; for fold induction at 1 µM: 1 μM Cbl-b inhibitor; for fold induction at 4 µM: 4 μM Cbl-b inhibitor
Summary of the method: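 No assay protocol given; T-cells stimulated with anti-CD3 alone or anti-CD3 plus anti-CD28, with or without Cbl-b inhibitor. Activation read as IL-2 secretion or CD25 surface staining, expressed as fold over baseline from uninhibited cells […].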

Cbl-b [3] = molecular target: T1, Cbl-b (Homo sapiens, UniProt Q13191); assay: Cbl-b activity assay (Cbl-b inhibition assay), TR-FRET of Cbl-b interaction with UbcH5B-Ub; type: biochemical
T1 sequence (Q13191 36-427): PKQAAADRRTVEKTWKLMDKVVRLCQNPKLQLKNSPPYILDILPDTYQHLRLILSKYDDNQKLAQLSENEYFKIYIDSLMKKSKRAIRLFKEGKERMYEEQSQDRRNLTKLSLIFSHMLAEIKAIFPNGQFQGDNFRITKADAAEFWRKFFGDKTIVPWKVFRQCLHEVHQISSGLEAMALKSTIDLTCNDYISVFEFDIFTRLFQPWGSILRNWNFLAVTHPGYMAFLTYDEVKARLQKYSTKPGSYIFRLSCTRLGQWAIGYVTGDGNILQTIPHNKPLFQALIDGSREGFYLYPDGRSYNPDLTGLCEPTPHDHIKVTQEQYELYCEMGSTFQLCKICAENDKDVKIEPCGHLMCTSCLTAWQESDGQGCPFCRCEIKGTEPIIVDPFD
Summary of the method: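 TR-FRET readout of Cbl-b binding to Bodipy-fluorescein N-terminally labeled Ub conjugated to UbcH5B C85K, measured with compound present. After compound incubation, 60 nM Src kinase with 1 mM ATP and 5 mM MgCl2 (final) was added for 1.5 h, then a further 1 h incubation; asterisked values used 50 mM NaCl buffer and 30 nM Src.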

Cbl-b [4] = molecular target: T1, Cbl-b; assay: Cbl-b inhibition assay (Cbl-b activity assay, FRET, Biological Example 1; 100 mM NaCl, 60 nM Src kinase); type: biochemical; details: upper bound stated in text lists; read-out: IC50 values in the Cbl-b inhibition assay of Biological Example 1
Summary of the method: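 Inhibition is read as loss of FRET signal. The signal arises when Src-phosphorylated, N-terminal biotinylated Avi-Cbl-b (captured by streptavidin-terbium) binds UbcH5B carrying covalently linked Bodipy-Fluorescein-tagged ubiquitin.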

T-cell [5] = assay: IL-2 secretion from T-cells stimulated with anti-CD3 antibody alone (Biological Example 2); type: cell-based, human; details: T-cell, fold change over baseline, primary human total T-cells, read-out: IL-2 secretion Anti-CD3 stimulation; for fold induction at 1 µM: 1 μM Cbl-b inhibitor; for fold induction at 8 µM: 8 μM Cbl-b inhibitor
[6] = * assay buffer containing 50 mM NaCl instead of 100 mM NaCl and 30 nM Src kinase instead of 60 nM, read-out: Cbl-b activity IC50 (μM)*
[7] = assay buffer with 100 mM NaCl, 60 nM Src kinase, read-out: Cbl-b activity IC50

Row | SMILES | fold induction at 1 µM (T-cell [1]) | fold induction at 8 µM (T-cell [1]) | fold induction at 0.3 µM (T-cell [2]) | fold induction at 1 µM (T-cell [2]) | fold induction at 4 µM (T-cell [2]) | IC50 (Cbl-b [3]; [6]) [µM] | IC50 (Cbl-b [3]; [7]) [µM] | IC50 (Cbl-b [4]) [µM] | fold induction at 1 µM (T-cell [5]) | fold induction at 8 µM (T-cell [5])
1 | CC(C)c1cccc(C(=O)Nc2cccc([C@H](C)Sc3nncn3C)c2)n1 [Compound 33, (S)-6-Isopropyl-N-(3-(1-((4-methyl-4H-1,2,4-triazol-3-yl)thio)ethyl)phenyl)picolinamide] | < 0.6 | 0.801 to 1 | 1.01 to 1.3 | 1.01 to 1.3 | 1.01 to 1.3 | 0.301 to 1 | 0.1 to 0.3 | ≤ 0.5 | < 0.05 | < 0.05
2 | Cc1ccc(C(=O)Nc2cccc([C@H](C)Sc3nncn3C)c2)nc1C [Compound 35, (S)-5,6-Dimethyl-N-(3-(1-((4-methyl-4H-1,2,4-triazol-3-yl)thio)ethyl)phenyl)picolinamide] | < 0.6 | 0.601 to 0.8 | < 1 | 1.01 to 1.3 | 1.31 to 1.5 | 0.301 to 1 | 0.301 to 1 | ≤ 1 | < 0.05 | > 0.201
3 | Cc1cccc2nc(C(=O)Nc3cccc([C@H](C)Sc4nncn4C)c3)ccc12 [Compound 48, 5-Methyl-N-[3-[(1S)-1-[(4-methyl-4H-1,2,4-triazol-3-yl)sulfanyl]ethyl]phenyl]quinoline-2-carboxamide] | 0.801 to 1 | 0.801 to 1 | 1.01 to 1.3 | 1.01 to 1.3 | 1.01 to 1.3 | – | 0.301 to 1 | ≤ 0.5 | < 0.05 | 0.101 to 0.15
4 | C[C@H](Sc1nncn1C)c1cccc(NC(=O)c2ccc(Cl)c(C(F)(F)F)n2)c1 [Compound 51, (S)-5-chloro-N-(3-(1-((4-methyl-4H-1,2,4-triazol-3-yl)thio)ethyl)phenyl)-6-(trifluoromethyl)picolinamide] | 0.801 to 1 | > 1 | 1.01 to 1.3 | 1.01 to 1.3 | 1.01 to 1.3 | – | 0.1 to 0.3 | ≤ 0.5 | < 0.05 | < 0.05
5 | C[C@H](Sc1nncn1C)c1cccc(NC(=O)c2cc(C(C)(C)O)c(Cl)cn2)c1 [Compound 55, (S)-5-chloro-4-(2-hydroxypropan-2-yl)-N-(3-(1-((4-methyl-4H-1,2,4-triazol-3-yl)thio)ethyl)phenyl)picolinamide] | < 0.6 | 0.601 to 0.8 | 1.01 to 1.3 | 1.01 to 1.3 | 1.01 to 1.3 | – | 0.301 to 1 | ≤ 1 | < 0.05 | < 0.05
6 | Cc1cc(C)nc(C(=O)Nc2cccc([C@H](C)Sc3nncn3C)c2)c1 [Compound 56, (S)-4,6-dimethyl-N-(3-(1-((4-methyl-4H-1,2,4-triazol-3-yl)thio)ethyl)phenyl)picolinamide] | < 0.6 | 0.801 to 1 | 1.01 to 1.3 | 1.01 to 1.3 | 1.01 to 1.3 | – | 0.301 to 1 | ≤ 1 | < 0.05 | < 0.05
7 | Cc1ccc(C(=O)Nc2cccc([C@H](C)Sc3nncn3C)c2)nc1C(F)(F)F [Compound 61, (S)-5-methyl-N-(3-(1-((4-methyl-4H-1,2,4-triazol-3-yl)thio)ethyl)phenyl)-6-(trifluoromethyl)picolinamide] | 0.601 to 0.8 | > 1 | < 1 | 1.01 to 1.3 | 1.01 to 1.3 | – | 0.1 to 0.3 | ≤ 0.5 | < 0.05 | < 0.05
8 | COc1nc(C(=O)Nc2cccc([C@H](C)Sc3nncn3C)c2)cc2ccccc12 [Compound 62, (S)-1-methoxy-N-(3-(1-((4-methyl-4H-1,2,4-triazol-3-yl)thio)ethyl)phenyl)isoquinoline-3-carboxamide] | < 0.6 | 0.801 to 1 | < 1 | 1.01 to 1.3 | 1.01 to 1.3 | – | 0.1 to 0.3 | ≤ 0.5 | < 0.05 | 0.051 to 0.1
9 | C[C@H](Sc1nncn1C)c1cccc(NC(=O)c2cc(C(F)(F)F)cc(C(F)(F)F)n2)c1 [Compound 64, (S)-N-(3-(1-((4-methyl-4H-1,2,4-triazol-3-yl)thio)ethyl)phenyl)-4,6-bis(trifluoromethyl)picolinamide] | < 0.6 | 0.601 to 0.8 | < 1 | < 1 | 1.01 to 1.3 | – | 0.301 to 1 | ≤ 1 | < 0.05 | < 0.05
10 | C[C@H](Sc1nncn1C)c1cccc(NC(=O)c2cc(Cl)cc(C(F)(F)F)n2)c1 [Compound 68, (S)-4-chloro-N-(3-(1-((4-methyl-4H-1,2,4-triazol-3-yl)thio)ethyl)phenyl)-6-(trifluoromethyl)picolinamide] | 0.601 to 0.8 | 0.801 to 1 | 1.01 to 1.3 | 1.01 to 1.3 | 1.01 to 1.3 | – | 0.1 to 0.3 | ≤ 0.5 | < 0.05 | 0.051 to 0.1
11 | C[C@H](Sc1nncn1C)c1cccc(NC(=O)c2cc(C(F)(F)F)cc(C3CC3)n2)c1 [Compound 69, (S)-6-cyclopropyl-N-(3-(1-((4-methyl-4H-1,2,4-triazol-3-yl)thio)ethyl)phenyl)-4-(trifluoromethyl)picolinamide] | < 0.6 | < 0.6 | 1.01 to 1.3 | 1.01 to 1.3 | 1.31 to 1.5 | – | 0.301 to 1 | ≤ 0.5 | < 0.05 | < 0.05
12 | Cc1ncc(C(=O)Nc2cccc([C@H](C)Sc3nncn3C)c2)nc1C1CC1 [Compound 70, (S)-6-cyclopropyl-5-methyl-N-(3-(1-((4-methyl-4H-1,2,4-triazol-3-yl)thio)ethyl)phenyl)pyrazine-2-carboxamide] | 0.801 to 1 | 0.801 to 1 | 1.31 to 1.5 | 1.31 to 1.5 | 1.51 to 1.75 | – | 0.1 to 0.3 | ≤ 0.5 | < 0.05 | 0.051 to 0.1
13 | COc1cc(C(=O)Nc2cccc([C@H](C)Sc3nncn3C)c2)nc(C(F)(F)F)c1 [Compound 71, (S)-4-methoxy-N-(3-(1-((4-methyl-4H-1,2,4-triazol-3-yl)thio)ethyl)phenyl)-6-(trifluoromethyl)picolinamide] | 0.801 to 1 | 0.801 to 1 | 1.01 to 1.3 | 1.51 to 1.75 | > 1.76 | – | 0.1 to 0.3 | ≤ 0.5 | 0.051 to 0.1 | > 0.201
